Measured values from ChEMBL document CHEMBL3758095, “Preliminary evaluation of fluoro-pegylated benzyloxybenzenes for quantification of β-amyloid plaques by positron emission tomography” (Eur J Med Chem, 2015).
Active and inactive are the calls of the source. No cut-off for these calls is given here.

Tests used:
Mus musculus [1] = assay: In vivo binding affinity to amyloid beta plaques in C57BL6 Appswe/PSEN1 Tg mouse brain cortex at 1 mCi, iv after 20 mins by DANIR 3b staining based autoradiographic analysis; format: functional, organism-based; conditions: tested as the 18F-labelled form
Mus musculus [2] = assay: In vivo binding affinity to amyloid beta plaques in C57BL6 Appswe/PSEN1 Tg mouse cerebellum at 1 mCi, iv after 20 mins by DANIR 3b staining based autoradiographic analysis; format: functional, organism-based; conditions: tested as the 18F-labelled form
[3] = target: T1, Amyloid-beta precursor protein (Homo sapiens, UniProt P05067); assay: Displacement of [125I]BOB-4 from Amyloid beta (1 to 42) (unknown origin)
T1 sequence (P05067 whole entry): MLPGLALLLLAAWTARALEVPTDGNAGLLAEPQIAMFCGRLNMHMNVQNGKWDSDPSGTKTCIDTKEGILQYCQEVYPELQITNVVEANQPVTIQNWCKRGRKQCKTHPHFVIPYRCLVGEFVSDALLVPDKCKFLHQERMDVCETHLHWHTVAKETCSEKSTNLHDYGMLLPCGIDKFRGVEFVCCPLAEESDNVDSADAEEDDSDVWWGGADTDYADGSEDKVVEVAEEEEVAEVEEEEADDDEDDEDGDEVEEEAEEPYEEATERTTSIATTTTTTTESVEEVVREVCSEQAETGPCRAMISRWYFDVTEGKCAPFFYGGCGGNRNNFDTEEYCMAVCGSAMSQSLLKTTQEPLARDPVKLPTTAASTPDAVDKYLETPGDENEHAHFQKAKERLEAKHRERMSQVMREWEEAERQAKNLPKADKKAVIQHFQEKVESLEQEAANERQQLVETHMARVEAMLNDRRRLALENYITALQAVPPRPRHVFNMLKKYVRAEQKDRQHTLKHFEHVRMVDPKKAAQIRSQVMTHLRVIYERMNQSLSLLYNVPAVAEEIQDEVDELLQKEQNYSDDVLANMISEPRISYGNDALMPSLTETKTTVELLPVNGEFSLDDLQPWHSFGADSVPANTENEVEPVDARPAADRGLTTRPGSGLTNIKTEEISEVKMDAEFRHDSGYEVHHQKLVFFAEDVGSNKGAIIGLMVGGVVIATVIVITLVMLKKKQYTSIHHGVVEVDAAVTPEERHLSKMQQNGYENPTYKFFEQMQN

Mus musculus [4] = assay: In vivo binding affinity to amyloid beta in wild type C57BL6 mouse hippocampus at 1 mCi, iv after 20 mins by DANIR 3b staining based autoradiographic analysis; format: functional, organism-based; conditions: tested as the 18F-labelled form
Mus musculus [5] = assay: In vivo binding affinity to amyloid beta in wild type C57BL6 mouse cerebellum at 1 mCi, iv after 20 mins by DANIR 3b staining based autoradiographic analysis; format: functional, organism-based; conditions: tested as the 18F-labelled form
Mus musculus [6] = assay: In vivo binding affinity to amyloid beta in wild type C57BL6 mouse brain cortex at 1 mCi, iv after 20 mins by DANIR 3b staining based autoradiographic analysis; format: functional, organism-based; conditions: tested as the 18F-labelled form
Mus musculus [7] = species on record: Mus musculus; assay: Binding affinity to amyloid beta plaques in C57BL6 APPswe/PSEN1 Tg mouse cerebral cortex by DANIR 3b staining based autoradiographic analysis; format: tissue-based; conditions: tested as the 18F-labelled form
[8] = target: T1, Amyloid-beta precursor protein; assay: Binding affinity to amyloid beta plaques in alzheimer's disease patient cerebral cortex by DANIR 3b staining based autoradiographic analysis; format: tissue-based; conditions: tested as the 18F-labelled form
Mus musculus [9] = assay: In vivo binding affinity to amyloid beta plaques in C57BL6 Appswe/PSEN1 Tg mouse hippocampus at 1 mCi, iv after 20 mins by DANIR 3b staining based autoradiographic analysis; format: functional, organism-based; conditions: tested as the 18F-labelled form
[10] = target: T1, Amyloid-beta precursor protein; assay: Binding affinity to amyloid beta plaques in white matter of alzheimer's disease patient brain by DANIR 3b staining based autoradiographic analysis; format: tissue-based; conditions: tested as the 18F-labelled form
Mus musculus [11] = species on record: Mus musculus; assay: Binding affinity to amyloid beta plaques in C57BL6 mouse brain by DANIR 3b staining based autoradiographic analysis; format: tissue-based; conditions: tested as the 18F-labelled form
[12] = target: T1, Amyloid-beta precursor protein; assay: Binding affinity to amyloid beta plaques in healthy human brain by DANIR 3b staining based autoradiographic analysis; conditions: tested as the 18F-labelled form
Mus musculus [13] = species on record: Mus musculus; assay: Binding affinity to amyloid beta plaques in white matter of C57BL6 APPswe/PSEN1 Tg mouse brain by DANIR 3b staining based autoradiography analysis; format: tissue-based; conditions: tested as the 18F-labelled form
Stomach [14] = assay: Biodistribution in iv dosed ICR mouse stomach assessed per organ measured at 60 mins; format: ADME, organism-based; conditions: in vivo, 1 h
Brain [15] = assay: Biodistribution in iv dosed ICR mouse brain measured at 2 mins; format: ADME, organism-based; conditions: in vivo
Liver [16] = assay: Biodistribution in iv dosed ICR mouse liver measured at 10 mins; format: ADME, organism-based; conditions: in vivo
Intestine [17] = assay: Biodistribution in iv dosed ICR mouse intestine assessed per organ measured at 60 mins; format: ADME, organism-based; conditions: in vivo, 1 h
Stomach [18] = assay: Biodistribution in iv dosed ICR mouse stomach assessed per organ measured at 10 mins; format: ADME, organism-based; conditions: in vivo
Intestine [19] = assay: Biodistribution in iv dosed ICR mouse intestine assessed per organ measured at 10 mins; format: ADME, organism-based; conditions: in vivo
[20] = Partition coefficient, log D of the compound; format: physicochemical; conditions: octanol/water
Stomach [21] = assay: Biodistribution in iv dosed ICR mouse stomach assessed per organ measured at 2 mins; format: ADME, organism-based; conditions: in vivo
Intestine [22] = assay: Biodistribution in iv dosed ICR mouse intestine assessed per organ measured at 2 mins; format: ADME, organism-based; conditions: in vivo
Stomach [23] = assay: Biodistribution in iv dosed ICR mouse stomach assessed per organ measured at 30 mins; format: ADME, organism-based; conditions: in vivo, 0.5 h
Intestine [24] = assay: Biodistribution in iv dosed ICR mouse intestine assessed per organ measured at 30 mins; format: ADME, organism-based; conditions: in vivo, 0.5 h
Brain [25] = assay: Ratio of drug level in CD1 mouse brain at 370 kBq measured at 2 to 60 mins; format: ADME; conditions: in vivo
[26] = Metabolic stability in ICR mouse brain assessed as compound remaining at 35 to 45 Mbq, iv measured at 2 mins by HPLC analysis; format: ADME, organism-based; conditions: read-out: Stability
[27] = Metabolic stability in ICR mouse plasma assessed as compound remaining at 35 to 45 Mbq, iv measured at 30 mins by HPLC analysis; format: ADME, organism-based; conditions: read-out: Stability
[28] = Metabolic stability in ICR mouse brain assessed as compound remaining at 35 to 45 Mbq, iv measured at 60 mins by HPLC analysis; format: ADME, organism-based; conditions: read-out: Stability
Brain [29] = assay: Ratio of drug level in iv dosed ICR mouse brain at 2 to 60 mins; format: ADME, organism-based; conditions: in vivo
[30] = Metabolic stability in ICR mouse plasma assessed as compound remaining at 35 to 45 Mbq, iv measured at 2 mins by HPLC analysis; format: ADME, organism-based; conditions: read-out: Stability
[31] = Metabolic stability in ICR mouse brain assessed as compound remaining at 35 to 45 Mbq, iv measured at 30 mins by HPLC analysis; format: ADME, organism-based; conditions: read-out: Stability
[32] = Metabolic stability in ICR mouse plasma assessed as compound remaining at 35 to 45 Mbq, iv measured at 60 mins by HPLC analysis; format: ADME, organism-based; conditions: read-out: Stability
[33] = Metabolic stability in ICR mouse liver assessed as compound remaining at 35 to 45 Mbq, iv measured at 30 mins by HPLC analysis; format: ADME, organism-based; conditions: read-out: Stability
[34] = Metabolic stability in ICR mouse liver assessed as compound remaining at 35 to 45 Mbq, iv measured at 60 mins by HPLC analysis; format: ADME, organism-based; conditions: read-out: Stability
[35] = Metabolic stability in ICR mouse liver assessed as compound remaining at 35 to 45 Mbq, iv measured at 2 mins by HPLC analysis; format: ADME, organism-based; conditions: read-out: Stability
[36] = Metabolic stability in ICR mouse feces assessed as compound remaining at 35 to 45 Mbq, iv measured at 30 mins by HPLC analysis; format: ADME, organism-based; conditions: faeces, read-out: Stability
Liver [37] = assay: Retention time of the compound in ICR mouse liver at 35 to 45 Mbq, iv by HPLC analysis; format: ADME, organism-based
Plasma = assay: Retention time of the compound in ICR mouse plasma at 35 to 45 Mbq, iv by HPLC analysis; format: ADME, organism-based

## CN(C)c1ccc(OCc2ccc(OCCF)cc2)cc1
Mus musculus [1]
  Activity: Active
Mus musculus [2]
  Activity: Active
[3]
  Ki: 0.021 µM
  inhibition: Dose-dependent effect
Mus musculus [4]
  Activity: inactive
Mus musculus [5]
  Activity: inactive
Mus musculus [6]
  Activity: inactive
Mus musculus [7]
  Activity: Active
[8]
  Activity: Active
Mus musculus [9]
  Activity: Active
[10]
  Activity: inactive
Mus musculus [11]
  Activity: inactive
[12]
  Activity: inactive
Mus musculus [13]
  Activity: inactive

## COc1ccc(OCc2ccc(OCCF)cc2)cc1
[3]
  Ki: 0.153 µM
  inhibition: Dose-dependent effect

## COc1ccc(COc2ccc(OCCOCCOCC[18F])cc2)cc1
Stomach [14]
  Drug uptake: 0.9 %ID
Brain [15]
  Drug uptake: 9.71 % ID/g
Liver [16]
  Drug uptake: 11.16 % ID/g
Intestine [17]
  Drug uptake: 26.12 %ID
Stomach [18]
  Drug uptake: 1.1 %ID
Intestine [19]
  Drug uptake: 6.18 %ID
[20]
  logD: 3.04
Stomach [21]
  Drug uptake: 1.53 %ID
Intestine [22]
  Drug uptake: 6.3 %ID
Stomach [23]
  Drug uptake: 1.52 %ID
Intestine [24]
  Drug uptake: 16.43 %ID

## CN(C)c1ccc(COc2ccc(OCCF)cc2)cc1
[3]
  Ki: 0.0257 µM
  inhibition: Dose-dependent effect
Mus musculus [7]
  Activity: Active
[8]
  Activity: Active
[10]
  Activity: inactive
Mus musculus [11]
  Activity: inactive
[12]
  Activity: inactive
Mus musculus [13]
  Activity: inactive

## CNc1ccc(/C=C/c2ccc(OCCOCCOCC[18F])nc2)cc1 [FLORBETAPIR F 18]
Brain [25]
  Ratio: 3.9

## CNc1ccc(-c2nc3ccc(O)cc3s2)cc1
[3]
  inhibition: Dose-dependent effect

## COc1ccc(COc2ccc(OCCOCCOCCF)cc2)cc1
[3]
  Ki: 0.77 µM
  inhibition: Dose-dependent effect

## COc1ccc(COc2ccc(OCCF)cc2)cc1
[3]
  Ki: 0.119 µM
  inhibition: Dose-dependent effect

## CN(C)c1ccc(OCc2ccc(OCC[18F])cc2)cc1
Stomach [14]
  Drug uptake: 3.58 %ID
[26]
  remaining at 2 min: 95.4%
Brain [15]
  Drug uptake: 9.14 % ID/g
Liver [16]
  Drug uptake: 6.38 % ID/g
Intestine [17]
  Drug uptake: 6.71 %ID
Stomach [18]
  Drug uptake: 4.11 %ID
Intestine [19]
  Drug uptake: 5.16 %ID
[27]
  remaining at 0.5 h: 5.8%
[20]
  logD: 2.75
Stomach [21]
  Drug uptake: 2.48 %ID
[28]
  remaining at 1 h: 14.8%
Brain [29]
  Ratio: 5.1
[30]
  remaining at 2 min: 56.5%
Intestine [22]
  Drug uptake: 5.49 %ID
[31]
  remaining at 0.5 h: 31.6%
[32]
  remaining at 1 h: 5.1%
[33]
  remaining at 0.5 h: 9.2%
[34]
  remaining at 1 h: 4.4%
[35]
  remaining at 2 min: 63.5%
Stomach [23]
  Drug uptake: 4.69 %ID
Intestine [24]
  Drug uptake: 5.63 %ID
[36]
  remaining at 0.5 h: 22.7%

## COc1ccc(COc2ccc(OCC[18F])cc2)cc1
Stomach [14]
  Drug uptake: 0.77 %ID
Brain [15]
  Drug uptake: 9.95 % ID/g
Liver [16]
  Drug uptake: 7.47 % ID/g
Intestine [17]
  Drug uptake: 13 %ID
Stomach [18]
  Drug uptake: 1.08 %ID
Intestine [19]
  Drug uptake: 4.41 %ID
[20]
  logD: 3.65
Stomach [21]
  Drug uptake: 1.22 %ID
Intestine [22]
  Drug uptake: 7.09 %ID
Stomach [23]
  Drug uptake: 0.78 %ID
Intestine [24]
  Drug uptake: 7.66 %ID

## COc1ccc(OCc2ccc(OCC[18F])cc2)cc1
Stomach [14]
  Drug uptake: 0.98 %ID
Brain [15]
  Drug uptake: 7.54 % ID/g
Liver [16]
  Drug uptake: 4.97 % ID/g
Intestine [17]
  Drug uptake: 10.75 %ID
Stomach [18]
  Drug uptake: 0.96 %ID
Intestine [19]
  Drug uptake: 4.83 %ID
[20]
  logD: 3.05
Stomach [21]
  Drug uptake: 1.32 %ID
Intestine [22]
  Drug uptake: 7.31 %ID
Stomach [23]
  Drug uptake: 1.29 %ID
Intestine [24]
  Drug uptake: 6.85 %ID

## CN(C)c1ccc(COc2ccc(OCC[18F])cc2)cc1
Stomach [14]
  Drug uptake: 0.22 %ID
[26]
  remaining at 2 min: 76.7%
Brain [15]
  Drug uptake: 4.51 % ID/g
Liver [37]
  Retention_time: 9.1 min
Liver [16]
  Drug uptake: 3.23 % ID/g
Intestine [17]
  Drug uptake: 1.72 %ID
Stomach [18]
  Drug uptake: 0.54 %ID
Intestine [19]
  Drug uptake: 3.12 %ID
[20]
  logD: 3.11
Stomach [21]
  Drug uptake: 0.92 %ID
[28]
  remaining at 1 h: 16.7%
[30]
  remaining at 2 min: 10.8%
Intestine [22]
  Drug uptake: 5.52 %ID
[31]
  remaining at 0.5 h: 20.6%
Plasma
  Retention_time: 9.1 min
[33]
  remaining at 0.5 h: 8.4%
[34]
  remaining at 1 h: 10.6%
[35]
  remaining at 2 min: 22.6%
Stomach [23]
  Drug uptake: 0.37 %ID
Intestine [24]
  Drug uptake: 2.35 %ID
[36]
  remaining at 0.5 h: 14.6%

## CNc1ccc(/C=C/c2ccc(OCCOCCOCCF)nc2)cc1 [FLORBETAPIR]
[3]
  Ki: 0.0114 µM
  inhibition: Dose-dependent effect

## CN(C)c1ccc(-c2cn3cc(I)ccc3n2)cc1
[3]
  inhibition: Dose-dependent effect

## COc1ccc(COc2ccc(OCCOCCF)cc2)cc1
[3]
  Ki: 0.438 µM
  inhibition: Dose-dependent effect

## CN(C)c1ccc(COc2ccc(OCCOCCF)cc2)cc1
[3]
  Ki: 0.191 µM
  inhibition: Dose-dependent effect

## CN(C)c1ccc(COc2ccc(OCCOCCOCCF)cc2)cc1
[3]
  Ki: 0.358 µM
  inhibition: Dose-dependent effect
